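Five concentrations, 48 hours, 96-well plates. GI50: concentration for 50% inhibition of growth.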 Active and inactive are the calls of the source. No stated cut-off is given here; in the data, active = GI50 up to about 1.1 µM and inactive = higher.
Tests used:
Test in all cases: NCI anticancer screen, dose series, 48 h
786-0 = system: 786-0
HCC 2998 = system: HCC 2998
HCT-116 = system: HCT-116
K562 = system: K562
LOX IMVI = system: LOX IMVI
LXFL 529 = system: LXFL 529
Malme-3M = system: Malme-3M
NCI-H23 = system: NCI-H23
OVCAR-3 = system: OVCAR-3
OVCAR-8 = system: OVCAR-8
SF-539 = system: SF-539
SK-MEL-28 = system: SK-MEL-28
SN12C = system: SN12C
SNB-75 = system: SNB-75
SR = system: SR
SW-620 = system: SW-620
MCF7 = system: MCF7
MDA-MB-435 = system: MDA-MB-435
NCI/ADR-RES = system: NCI/ADR-RES
T47D = system: T47D

Measured: GI50

N#Cc1c(-c2ccco2)cc(-c2ccccc2)nc1O
inactive: 786-0 > 100 µM | HCC 2998 > 100 µM | HCT-116 > 100 µM | K562 > 100 µM | LOX IMVI > 100 µM | LXFL 529 > 100 µM | Malme-3M > 100 µM | NCI-H23 > 100 µM | OVCAR-3 > 100 µM | OVCAR-8 > 100 µM | SF-539 > 100 µM | SK-MEL-28 > 100 µM | SN12C > 100 µM | SNB-75 56.4 µM | SR > 100 µM | SW-620 > 100 µM

CN/N=C(\C)C(CN1CCCCC1)C(C1=C(O)c2ccccc2OC1)c1ccccc1 (centres undefined)
inactive: 786-0 > 100 µM | HCC 2998 > 100 µM | HCT-116 > 100 µM | K562 > 100 µM | LOX IMVI > 100 µM | LXFL 529 > 100 µM | Malme-3M 91.8 µM | NCI-H23 > 100 µM | OVCAR-3 > 100 µM | OVCAR-8 > 100 µM | SF-539 > 100 µM | SK-MEL-28 > 100 µM | SN12C > 100 µM | SNB-75 > 100 µM | SR 51.3 µM | SW-620 > 100 µM

CC1CCP(=O)(c2ccccc2)c2ccccc21 (centres undefined)
inactive: 786-0 > 100 µM | HCC 2998 38.8 µM | HCT-116 23 µM | K562 25.1 µM | LOX IMVI 24.3 µM | LXFL 529 43.6 µM | Malme-3M > 100 µM | NCI-H23 > 100 µM | OVCAR-3 76.2 µM | OVCAR-8 41.6 µM | SF-539 56.1 µM | SK-MEL-28 > 100 µM | SN12C 26.2 µM | SNB-75 > 100 µM | SR 32.4 µM | SW-620 > 10 µM

COC(=O)C1=C(C(=O)OC)SC(=CC#CC=C2SC(C(=O)OC)=C(C(=O)OC)S2)S1
inactive: 786-0 5.79 µM | HCC 2998 10.8 µM | HCT-116 11.7 µM | K562 > 87.5 µM | LOX IMVI 9.71 µM | LXFL 529 14.3 µM | Malme-3M 15.7 µM | NCI-H23 5.81 µM | OVCAR-3 5.94 µM | OVCAR-8 5.04 µM | SF-539 2.19 µM | SK-MEL-28 18.4 µM | SN12C 13.5 µM | SNB-75 7 µM | SR > 100 µM | SW-620 26.9 µM

CC(C)(Oc1ccc(/C=C/C(=O)c2ccc(Cl)cc2)cc1)C(=O)Nc1c(Cl)cccc1Cl
inactive: 786-0 19.6 µM | HCC 2998 25.4 µM | HCT-116 6.03 µM | K562 > 100 µM | LOX IMVI 16 µM | LXFL 529 13.9 µM | Malme-3M 19.7 µM | NCI-H23 17.3 µM | OVCAR-3 19.5 µM | OVCAR-8 14.1 µM | SF-539 14.6 µM | SK-MEL-28 16.1 µM | SN12C 15 µM | SNB-75 29.4 µM | SR > 100 µM | SW-620 12.8 µM

N#CC1(C#N)C2(c3ccccc3)OC(c3ccccc3)(c3cc4ccccc4cc32)C1(C#N)C#N
inactive: 786-0 8.51 µM | HCC 2998 18.5 µM | HCT-116 7.03 µM | K562 2.86 µM | LOX IMVI 4.91 µM | LXFL 529 1.62 µM | MCF7 5.38 µM | MDA-MB-435 17.1 µM | Malme-3M 18.1 µM | NCI-H23 11.9 µM | NCI/ADR-RES 21 µM | OVCAR-3 13.9 µM | OVCAR-8 8.3 µM | SF-539 16.1 µM | SK-MEL-28 12.4 µM | SN12C 16.6 µM | SNB-75 13 µM | SR 33.3 µM | SW-620 2.62 µM | T47D 13.6 µM

CCCCCCC(=O)C/C(CCC(=O)N(Cc1ccccc1)Cc1ccccc1)=N\Nc1ccc([N+](=O)[O-])cc1[N+](=O)[O-]
inactive: 786-0 58.5 µM | HCC 2998 73.6 µM | HCT-116 35.1 µM | K562 20.3 µM | LOX IMVI 33.3 µM | LXFL 529 31 µM | Malme-3M > 100 µM | NCI-H23 38.7 µM | OVCAR-3 35.4 µM | OVCAR-8 54.7 µM | SF-539 54.5 µM | SK-MEL-28 99.3 µM | SN12C 56.1 µM | SNB-75 39.1 µM | SR > 10 µM | SW-620 55.6 µM

CCC(=O)C1=C(OC(C)=O)C2Cc3c(n(C)c4ccccc34)C(C1)N2C (centres undefined)
inactive: 786-0 22.2 µM | HCC 2998 38 µM | HCT-116 29.9 µM | K562 33.3 µM | LOX IMVI 40.5 µM | LXFL 529 29 µM | Malme-3M 48.6 µM | NCI-H23 68.9 µM | OVCAR-3 22.9 µM | OVCAR-8 18.9 µM | SF-539 16.7 µM | SK-MEL-28 71.8 µM | SN12C 25.3 µM | SNB-75 25.5 µM | SR 36.1 µM | SW-620 26.1 µM

COC(=O)N1CCc2c(nc(N(C)CCO)[nH]c2=O)C1
inactive: 786-0 > 100 µM | HCC 2998 > 100 µM | HCT-116 > 100 µM | K562 > 100 µM | LOX IMVI > 100 µM | LXFL 529 > 100 µM | Malme-3M > 100 µM | NCI-H23 > 100 µM | OVCAR-3 > 100 µM | OVCAR-8 > 100 µM | SF-539 > 100 µM | SK-MEL-28 > 100 µM | SN12C > 100 µM | SNB-75 > 100 µM | SR > 100 µM | SW-620 > 100 µM

CC(C)c1cccc(C(C)C)c1NC(=S)NN=C1C=C(C(C)(C)C)C(=O)C(C(C)(C)C)=C1
inactive: 786-0 18.9 µM | HCC 2998 23.5 µM | HCT-116 3.59 µM | K562 23.3 µM | LOX IMVI 18.2 µM | LXFL 529 32.3 µM | Malme-3M 27.3 µM | NCI-H23 16.9 µM | OVCAR-3 22.5 µM | OVCAR-8 17.8 µM | SF-539 19.9 µM | SK-MEL-28 34.4 µM | SN12C 22.2 µM | SNB-75 21.2 µM | SR 35.3 µM | SW-620 28.5 µM

COc1cc(Cn2c(=S)ss/c2=N\C(=S)N(C)C)cc(OC)c1OC
inactive: 786-0 7.36 µM | HCC 2998 49.1 µM | HCT-116 4.53 µM | K562 2.59 µM | LOX IMVI 4.69 µM | LXFL 529 6.37 µM | MCF7 3.64 µM | MDA-MB-435 1.26 µM | Malme-3M 3.21 µM | NCI-H23 14.7 µM | NCI/ADR-RES 1.61 µM | OVCAR-3 1.89 µM | OVCAR-8 52.6 µM | SF-539 6.35 µM | SK-MEL-28 10 µM | SN12C > 50.2 µM | SNB-75 3.77 µM | SR 3.42 µM | SW-620 2.81 µM | T47D > 86.7 µM
